According to patent publication US8981106B2, “Pyrimidinecarboxamides as CXCR2 modulators” (Syntrix Biosystems, Inc., priority 2009, dated 2015):
“And” between values parts separate entries of the source, which are not always exact repeats. Identical values can stand only once. Like-named read-outs stand apart in the source and are kept apart here.

Assays:
[1] = molecular target: T1, CXCR2 (Homo sapiens (Human), UniProt P25025); experiment: Agonist activity: intracellular calcium release in human neutrophils in the absence of GROα; assay type: cell-based; details: for Magnitude of Agonist Response (% of GROα only Control): relative to the response to 25 nM GROα; for EC50: human neutrophils, agonist calcium release
Protocol: (§1) In Tables 1-5, the IC50 or EC50 values were determined using the following assay. This assay measures intracellular calcium release via fluorescence as an indication of CXCR2 receptor activation by the physiologic agonist GROα. The assay is a Ca^2+ mobilization assay that measures changes in intracellular Ca^2+ with a FlexStation II scanning fluorometer using a FLIPR-3 Calcium Assay Kit (Molecular Devices, Sunnyvale, Calif.). The procedure is as follows:
(§2) 9. The maximum change in fluorescence, expressed in arbitrary units over baseline (Max-Min) was used to determine the GROα response. […] Therapeutic Activity
(§3) The maximum change in fluorescence, expressed in arbitrary units over baseline (Max-Min), was used to determine the GROα response.
Intracellular calcium release is a hallmark of CXCR2 activation by endogenous agonists, such as GROα and IL-8.
Target sequence in this assay (P25025 whole entry): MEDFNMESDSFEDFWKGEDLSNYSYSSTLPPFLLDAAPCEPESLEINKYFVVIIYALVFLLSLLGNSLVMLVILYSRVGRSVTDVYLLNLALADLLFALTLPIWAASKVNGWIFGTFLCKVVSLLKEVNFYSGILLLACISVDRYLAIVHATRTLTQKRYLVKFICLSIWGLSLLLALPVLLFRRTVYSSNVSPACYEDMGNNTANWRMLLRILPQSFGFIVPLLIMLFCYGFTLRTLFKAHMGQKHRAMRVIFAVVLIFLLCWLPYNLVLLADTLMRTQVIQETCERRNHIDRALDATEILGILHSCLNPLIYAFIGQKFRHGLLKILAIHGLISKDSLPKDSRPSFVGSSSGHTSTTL

[2] = Aqueous solubility; assay type: physicochemical
[3] = Crossover pharmacokinetic experiment in Beagle dogs; assay type: in vivo; details: without excipient
Protocol: In this study, male Beagle dogs (n=5) were dosed intravenously on study day 1 with SX-576 in dimethylformamide/PEG400/saline (40:40:20) at a dose level of 5 mg/kg and a dose volume of 0.5 mL/kg. Blood samples were taken predose, and at time points 30, 60, 90, 120, 180, 360, 540 and 720 minutes. The blood was collected in tubes containing K2EDTA as an anticoagulant, and the tubes were centrifuged and the plasma fractions collected and frozen. After a one-week washout period, the same Beagle dogs were dosed orally with SX-576 in lipid based excipient Gelucire® 44/14 (Gattefosse) at a dose level of 5 mg/kg. Blood samples were then taken and plasma fractions collected as previously described. Prior to analysis, the plasma samples were thawed and diluted 1:3 into acetonitrile containing 1 μM of compound 153 as an internal standard. The resulting samples were centrifuged and the supernatant analyzed by LC-MS monitoring in multiple reaction monitoring mode. The samples were run concomitantly with a calibration curve of SX-576 in the same internal standard solution.
The lipid based excipient Gelucire® 44/14 is a self-emulsifying drug delivery system (SEDDS) that is able to solubilize both SX-517 and SX-576 into aqueous solutions via micellular formation. […] Therefore, lipid-based emulsifiers are important excipients for the oral delivery of SX-576.

[4] = tested on: neutrophil influx; experiment: Murine air pouch model of neutrophil chemotaxis (p.o.); assay type: in vivo, male CD-1 mice
Protocol: Compounds 1 (SX-517) and 2 (SX-576) were also assayed in an in vivo air-pouch model of inflammation. SX-517 and SX-576 were able to attenuate neutrophil influx in the air-pouch model by about 50% at an oral dose of 0.2 and 0.05 mg/kg, respectively. […] More specifically, the procedure was performed by forming an air pouch on the backs of male CD-1 mice via the subcutaneous injection of air (2 mL). The next day, an additional subcutaneous injection of air (1.5 mL) was performed to reinflate the air pouch. The mice were given either vehicle control (Labrasol®) or test compound solubilized in Labrasol® via oral gavage. After 3 hours, either sterile phosphate buffered saline (PBS, 1 ml) or 2% carrageenan in sterile PBS (1 mL) was injected into the air pouch. After 4 hours, the mice were sedated with ketamine, and sacrificed by cervical dislocation. The exudate in the air pouch was collected by syringe, with an additional 2 mL wash with sterile PBS. The neutrophils were stained with trypan blue and counted on a hemocytometer under 20× magnification.

[5] = molecular target: T1, CXCR2; experiment: Inhibition of GROα-mediated intracellular calcium release in human neutrophils (FLIPR-3 Ca2+ mobilization); assay type: cell-based
Protocol: as §1
Target sequence in this assay (P25025 whole entry): as above
1. Human neutrophils were suspended in HBSS^− (without Ca^2+ and Mg^2+) containing 10 mM HEPES and FLIPR Calcium 3 dye (3.1×10^7 cells in total volume 1.7 mL).
2. […] As controls, 2 μL of DMSO (1% final concentration) were added to other 2 tubes.
3. Cells were incubated for 30 min at 37° C.
4. After dye loading, tubes were centrifuged at 6,000 rpm for 1 min, supernatant was removed and cell pellet was re-suspended in 200 μL of HBSS^+ (with Ca^2+ and Mg^2+) containing 10 mM HEPES.
5. The compound or DMSO (control) was added again at the same concentrations that were used during cell loading.
6. The cell suspension was aliquoted into a 96-well Reading Plate (Corning) in a volume of 90 μL (10^5 cells/well). The Compound Plate contained physiologic agonist (GROα in HBSS^−) or HBSS^− (control).
as §2
Briefly, human neutrophils were suspended in HBSS^− (without Ca^2+ and Mg^2+) containing 10 mM HEPES and FLIPR Calcium 3 dye (3.1×10^7 cells in total volume 1.7 mL). […] As controls, 2 μL of DMSO (1% final concentration) were added to 2 other tubes. Cells were incubated for 30 min at 37° C. After dye loading, tubes were centrifuged at 6,000 rpm for 1 min, supernatant was removed and the cell pellet was re-suspended in 200 μL of HBSS^+ (with Ca^2+ and Mg^2+) containing 10 mM HEPES. The test compound or DMSO (control) was added again at the same concentrations that were used during cell loading. The cell suspension was aliquoted into a 96-well Reading Plate (Corning) in a volume of 90 μL (10^5 cells/well). The Compound Plate contained agonist (GROα in HBSS^−) or HBSS^− (control).
as §3

[6] = molecular target: T1, CXCR2; experiment: β-arrestin recruitment, β-galactosidase fragment complementation (DiscoveRx)
Target sequence in this assay (P25025 whole entry, species assumed): as the sequence (P25025 whole entry) above

[7] = molecular target: T1, CXCR2; experiment: 125I-IL-8 radioligand binding inhibition; details: concentrations up to 10 μM
From the text: In vitro experiments, in addition to those measuring calcium release from human PMNs, provided evidence that the mechanism of action of Compounds 1 and 2 are most consistent with an allosteric (non-competitive) mode of action.
Target sequence in this assay (P25025 whole entry): as above

[8] = human neutrophils, 25 nM GROα, read-out: IC50

| IC50 [5, 8] | Structure (SMILES) | other results |
| --- | --- | --- |
| 38 ± 3 nM | O=C(Nc1ccc(F)cc1)c1ccc(SCc2ccccc2B(O)O)nc1 [Compound 1, 6-(2-borono-2-yl-benzylsulfanyl)-N-(4-fluoro-phenyl)-nicotinamide] | Magnitude of Agonist Response (% of GROα only Control) [1]: did not show agonist activity; aqueous solubility [2]: poor aqueous solubility; plasma level when dosed without excipient [3]: undetected in plasma; total neutrophil counts in the blood ([4]; high doses, compared to control animals): not significantly changed; attenuation of neutrophil influx ([4]; oral dose 0.2 mg/kg): about 50%; neutrophil influx ([4]; p.o., 0.005 and 0.2 (mg/kg)): decrease of neutrophil influx; neutrophil influx at high oral dose ([4]; p.o., doses in excess of 10 mg/kg): increase in neutrophil influx; IC50 ([5]; in vitro, stated in the binding example, read-out: IC50 in vitro): ~60 nM; activity on β-arrestin complexation with CXCR2 in the absence of IL8 ([6]; absence of IL8): inverse agonists; inhibition of β-arrestin recruitment following CXCR2 activation with IL8 ([6]; with IL8): inhibited arrestin recruitment; displacement of radiolabeled IL-8 binding to CXCR2 receptors [7]: unable to significantly displace |
|  | O=C(Nc1ccc(F)cc1)c1ccc(SCc2ccccc2O)nc1 [Compound 13] | EC50 [1]: 2400 nM; Magnitude of Agonist Response (% of GROα only Control) [1]: 60% |
| 28 ± 6 nM | O=C(Nc1ccc(F)cc1)c1ccc(SCc2cc(OC(F)(F)F)ccc2O)nc1 [Compound 14, 6-(2-hydroxy-5-trifluoromethoxy-benzylsulfanyl)-N-(4-fluoro-phenyl)-nicotinamide] | EC50 [1]: 1800 nM and 1810 nM; Magnitude of Agonist Response (% of GROα only Control) [1]: 15% |
| > 5000 nM | O=C(CSc1ccc(C(=O)Nc2ccc(F)cc2)cn1)c1ccc2c(c1)OCCCO2 [Compound 142] |  |
| > 10000 nM | O=C(Nc1ccc(F)cc1)c1ccc(SCC(=O)c2cccc3c2OCCCO3)nc1 [Compound 143] |  |
| 2240 ± 710 nM | O=C(Nc1ccc(F)cc1)c1ccc(SCC(=O)c2ccsn2)nc1 [Compound 144] |  |
| > 5000 nM | O=C(Nc1ccc(F)cc1)c1ccc(SCC(=O)c2nc3ccccc3s2)nc1 [Compound 145] |  |
| > 10000 nM | Cc1nc(-c2ccccc2)sc1C(=O)CSc1ccc(C(=O)Nc2ccc(F)cc2)cn1 [Compound 146] |  |
| > 5000 nM | Cc1nc(-c2ccc(Cl)cc2)sc1C(=O)CSc1ccc(C(=O)Nc2ccc(F)cc2)cn1 [Compound 147] |  |
| > 5000 nM | Cc1nc(-c2ccc(C(F)(F)F)cc2)sc1C(=O)CSc1ccc(C(=O)Nc2ccc(F)cc2)cn1 [Compound 148] |  |
| > 10000 nM | Cc1nc(-c2cnccn2)sc1C(=O)CSc1ccc(C(=O)Nc2ccc(F)cc2)cn1 [Compound 149] |  |
| > 10000 nM | Cc1c(C(=O)CSc2ccc(C(=O)Nc3ccc(F)cc3)cn2)cnn1-c1ccccc1 [Compound 150] |  |
| 703 ± 291 nM | Cn1c(C(=O)CSc2ccc(C(=O)Nc3ccc(F)cc3)cn2)nc2ccccc21 [Compound 151] |  |
| 1230 nM | O=C(Nc1ccc(F)cc1)c1ccc(SCC(=O)C(c2ccccc2)c2ccccc2)nc1 [Compound 153] |  |
| 78 ± 18 nM | O=C(c1ccc(SCc2ccccc2B(O)O)nc1)N(Cc1ccccn1)c1ccc(F)cc1 [Compound 155] |  |
| 890 ± 670 nM | O=C(c1ccc(SCc2ccccc2B(O)O)nc1)N(Cc1ccncc1)c1ccc(F)cc1 [Compound 157] |  |
| 1990 ± 460 nM | O=C(O)CN(C(=O)c1ccc(SCc2ccccc2B(O)O)nc1)c1ccc(F)cc1 [Compound 158] |  |
| 278 ± 148 nM | O=C(Nc1ccc(OC(F)(F)F)cc1)c1ccc(SCc2ccccc2B(O)O)nc1 [Compound 159] |  |
|  | O=C(O)c1ccc(NC(=O)c2ccc(SCc3ccccc3B(O)O)nc2)cc1 [Compound 160] | IC50 ([5]; read-out: IC50): > 10000 nM |
| 520 ± 263 nM | O=C(Nc1ccncc1)c1ccc(SCc2ccccc2B(O)O)nc1 [Compound 162] |  |
| 105 ± 44 nM | O=C(Nc1ccc(O)cc1)c1ccc(SCc2ccccc2B(O)O)nc1 [Compound 163] |  |
| 294 ± 119 nM | O=C(Nc1ccc(F)cn1)c1ccc(SCc2ccccc2B(O)O)nc1 [Compound 164] |  |
| 37 ± 7 nM | O=C(Nc1ccc(F)cc1O)c1ccc(SCc2ccccc2B(O)O)nc1 [Compound 165] |  |
| > 10000 nM | O=C(Nc1ccc(F)c(C(=O)O)c1)c1ccc(SCc2ccccc2B(O)O)nc1 [Compound 166] |  |

| Structure (SMILES) | IC50 [5, 8] | other results |
| --- | --- | --- |
| O=C(Nc1ccc(F)cc1)c1ccc(SCC(=O)c2cc(Br)cc3c2OCC3)nc1 [Compound 152] | 529 ± 440 nM |  |
| CN(C(=O)c1ccc(SCc2ccccc2B(O)O)nc1)c1ccc(F)cc1 [Compound 154] | > 5000 nM |  |
| O=C(c1ccc(SCc2ccccc2B(O)O)nc1)N(CC1CCCCN1)c1ccc(F)cc1 (stereo not drawn) [Compound 156] | > 5000 nM |  |
| O=C(Nc1ccc(-c2nn[nH]n2)cc1)c1ccc(SCc2ccccc2B(O)O)nc1 [Compound 161] | > 10000 nM |  |
